Experimental data from US6403637B1, “Methods of modulating matrix metalloproteinase activity and uses thereof” (priority 1999, dated 2002).

What was measured:
collagenase-3 receptor = target: T1, collagenase-3 receptor (Rattus norvegicus, UniProt Q4TU93); test: Scatchard analysis of 125I-mMMP-13 binding to UMR 106-01 cells, high affinity site
T1 construct: endogenous in cells; host or cells: UMR 106-01 rat osteosarcoma cells
T1 sequence (Q4TU93 31-1480): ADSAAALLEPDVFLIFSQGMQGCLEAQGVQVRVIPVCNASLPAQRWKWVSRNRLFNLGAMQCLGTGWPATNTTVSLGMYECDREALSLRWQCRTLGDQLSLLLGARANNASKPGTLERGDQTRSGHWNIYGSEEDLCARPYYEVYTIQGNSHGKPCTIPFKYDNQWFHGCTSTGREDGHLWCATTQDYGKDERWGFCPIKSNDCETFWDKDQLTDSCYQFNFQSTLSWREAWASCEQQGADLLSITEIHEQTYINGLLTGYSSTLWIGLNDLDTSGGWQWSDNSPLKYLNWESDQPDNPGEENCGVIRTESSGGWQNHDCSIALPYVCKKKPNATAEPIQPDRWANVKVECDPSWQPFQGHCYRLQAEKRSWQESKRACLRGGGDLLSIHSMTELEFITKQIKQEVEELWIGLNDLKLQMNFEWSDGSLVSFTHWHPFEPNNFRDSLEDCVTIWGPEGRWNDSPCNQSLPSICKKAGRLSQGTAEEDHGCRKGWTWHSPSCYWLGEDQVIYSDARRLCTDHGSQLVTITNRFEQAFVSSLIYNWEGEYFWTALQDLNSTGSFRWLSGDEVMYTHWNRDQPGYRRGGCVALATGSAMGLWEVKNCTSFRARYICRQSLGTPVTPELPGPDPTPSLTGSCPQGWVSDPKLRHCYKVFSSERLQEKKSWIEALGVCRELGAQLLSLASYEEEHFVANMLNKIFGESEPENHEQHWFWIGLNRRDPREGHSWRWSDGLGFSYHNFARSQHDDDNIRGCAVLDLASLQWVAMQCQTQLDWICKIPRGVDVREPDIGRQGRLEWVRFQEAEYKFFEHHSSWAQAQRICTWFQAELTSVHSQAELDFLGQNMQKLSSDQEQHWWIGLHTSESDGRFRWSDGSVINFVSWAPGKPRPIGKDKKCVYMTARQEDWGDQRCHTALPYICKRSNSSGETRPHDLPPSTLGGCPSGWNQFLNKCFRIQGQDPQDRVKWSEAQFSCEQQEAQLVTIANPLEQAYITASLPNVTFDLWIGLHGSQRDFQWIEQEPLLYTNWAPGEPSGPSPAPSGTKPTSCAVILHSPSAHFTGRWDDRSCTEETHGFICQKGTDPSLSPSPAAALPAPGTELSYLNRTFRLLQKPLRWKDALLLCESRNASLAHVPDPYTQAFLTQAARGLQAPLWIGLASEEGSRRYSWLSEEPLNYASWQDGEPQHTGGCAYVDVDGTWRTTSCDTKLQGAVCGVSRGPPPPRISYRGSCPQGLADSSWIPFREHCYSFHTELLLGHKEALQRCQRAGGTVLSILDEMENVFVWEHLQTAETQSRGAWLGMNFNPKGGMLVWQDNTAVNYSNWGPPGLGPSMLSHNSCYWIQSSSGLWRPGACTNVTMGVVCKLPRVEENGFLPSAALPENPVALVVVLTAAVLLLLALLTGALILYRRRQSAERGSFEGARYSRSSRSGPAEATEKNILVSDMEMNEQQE
Method: (§1) For all binding experiments, cells were seeded into 2.0 cm^2 wells. After the cells reached approximately 95% confluence, the medium was replaced with fresh medium containing 1 mg/ml BSA and the cells were assayed for binding 4 h later. The cells were first washed with maintenance medium, then incubated in the same medium with 0.01% Tween 80 containing ^125I-rat collagenase-3 or other iodinated ligands at 4° C. for 2 h. Non-specific binding was assessed by adding a 50-100-fold excess of cold ligand to half the wells, while an equivalent volume of buffer was added to the remaining wells. After incubation, the wells were washed three times with ice-cold MEM (0.5 ml). The cells were then lysed with 500 μl of 1 M NaOH and the lysates were counted on a gamma counter. Protein labeling with ^125I was done using the chloramine T method (Greenwood et al., 1963, Biochem. J. 89:114). The proteins had specific activities ranging from 9 to 27 μCi/μg.
(§2) The recombinant mouse MMP-13 has essentially equivalent catalytic, kinetic, and binding activity as the rat MMP-13 homolog utilized in Example 1.

[1] = target: T2, low density lipoprotein receptor-related protein (Rattus norvegicus, UniProt G3V928); test: Scatchard analysis of 125I-mMMP-13 binding to UMR 106-01 cells, lower affinity site
T2 construct: endogenous in cells; host or cells: UMR 106-01 rat osteosarcoma cells
Method: as §1, §2

[2] = system: UMR 106-01 rat osteosarcoma cells; test: Binding of 125I-labeled proteinases to UMR 106-01 cells; conditions: 125I-labeled protein, direct binding
UMR 106-01 cells [3] = test: Internalization assay in UMR 106-01 cells; assay type: cell-based, rat; set-up: reduction of intracellular accumulation of 125I-collagenase: dose or concentration left out as unconfirmed
Method: (§3) Although the low density lipoprotein receptor-related protein is not required for rat collagenase-3 binding to the cell, it might be required for ligand internalization. Therefore, internalization assays were performed with ^125I-rat collagenase-3 using MEF-1 and MEF-2 cells as follows. After binding 125I-rat labeled proteins as above, the cells were washed three times with cold modified Eagle's media (0.5 ml) to remove unbound ligand. The cells were then warmed to 37° C. by the addition of prewarmed modified Eagle's media (0.25 ml), and incubated at 37° C. for selected intervals. At each time point, the media were collected, and the cells were washed once with ice-cold MEM, then incubated with 0.25% Pronase®-E in modified Eagle's media for 15 min at 4° C. to strip cell surface proteins. The cell suspension was then centrifuged, and the radioactivity associated with cell pellets (defining internalized ^125I-proteins) was measured at each time point.
It is known that RAP inhibits internalization of ligands by the low density lipoprotein receptor-related protein (Kounnas et al., 1996, J. Biol. Chem 271:6523). Therefore, internalization assays were performed using ^125I-labeled rat collagenase-3 as a ligand and receptor-associated protein as a competitor. Human receptor-associated protein from the pGEX-receptor-associated protein expression vector (provided by Dr. Joachim Herz, University of Texas Southwestern Medical Center, Dallas, Tex.) was expressed in bacteria and prepared as described in Herz et al., 1991, J. Biol. Chem. 266:21232.
To investigate the mechanism by which RAP regulates internalization of collagenase-3, an experiment was performed where excess unlabeled RAP or rat collagenase-3 was prebound to UMR 106-01 cells. Binding and internalization of ^125I-labeled rat collagenase-3 and RAP were then allowed to proceed.

human chondrocytes [4] = test: Excretion of degraded (TCA-soluble) 125I-collagenase-3 from human chondrocytes; assay type: cell-based; conditions: chondrocytes
Method: (§4) Excretion of degraded matrix metalloproteinase is preferably evaluated by performing steps (a) through (e) of the internalization assay described above, collecting the media overlying the cells after incubating for 15 min to I hr, precipitating intact proteins from the collected media (e.g., incubating for 2 hr with 20% trichloroacetic acid in ethanol and 2% bovine serum albumin), pelleting the precipitated intact proteins, and measuring the label in the supernatant (e.g., by gamma counting ^125I).
(§5) Human tissue (articular cartilage and synovium) was obtained at surgery or autopsy and was prepared as follows. Tissue was minced in a laminar flow hood, then incubated in sterile filtered serum-free Dulbecco's modified Eagle's medium (50 ml) containing trypsin (0.25%) for 1 h at 37° C. on an orbital shaker. […]
(§6) As receptor-mediated processing of collagenase-3 culminates in lysosomal degradation and extracellular release of the ligand, binding and degradation assays as above were performed and measured the presence of degraded (TCA-soluble) ^125I-collagenase-3 in the media overlying cells. […]

UMR 106-01 cells [5] = test: Competition for 125I collagenase-3 binding in UMR 106-01 cells; set-up: species or system rat; conditions: 125I-rat collagenase-3
Method: as §1
These proteins were used as competitors in a series of binding assays in UMR cells using ^125I mouse collagenase-3. Radioactive labeling and binding assays were performed as in Example 1.

normal rat osteoblasts = test: Internalization of 125I-rat collagenase-3 in normal rat osteoblasts; assay type: cell-based; set-up: reduction of intracellular accumulation of 125I-collagenase: dose or concentration left out as unconfirmed
Method: Previous work has shown that the rat collagenase-3 endocytosis receptor system is present on UMR 106-01 rat osteosarcoma cells (Omura et al, 1994, J. Biol. Chem. 269:24994). To determine whether the receptor is present in other cells, several cell types were tested for their ability to bind rat collagenase-3. These cell types were normal rat osteoblasts, rat embryo fibroblasts, the rat epithelial breast carcinoma cell line BC-1, mouse NIH 3T3 fibroblasts, the human osteosarcoma cell line SAOS-2, and the rat osteosarcoma cell lines ROS 17/2.8 and UMR 106-01. The human osteosarcoma cell line SAOS-2 (ATCC HTB 85) and the mouse embryo fibroblast cell line NIH 3T3 (ATCC CRL 1658) were cultured according to recommendations of the American Type Culture Collection, Rockville, Md. UMR 106-01 rat osteosarcoma cells were cultured as described in Roswit et al., 1992, Arch. Biochem. Biophys. […]
Although the low density lipoprotein receptor-related protein is not required for rat collagenase-3 binding to the cell, it might be required for ligand internalization. […] The cell suspension was then centrifuged, and the radioactivity associated with cell pellets (defining internalized ^125I-proteins) was measured at each time point.
The ability of receptor-associated protein to inhibit internalization of ^125I-rat collagenase-3 in UMR 106-01 osteoblastic cells and normal rat osteoblasts was determined next. […]

human synoviocytes = test: Excretion of degraded (TCA-soluble) 125I-collagenase-3 from human synoviocytes; assay type: cell-based
Method: as §4, §5, §6

human chondrocytes [6] = test: Internalization of 125I collagenase-3 by human chondrocytes; assay type: cell-based; conditions: p<0.001
Method: as §3
Human tissue (articular cartilage and synovium) was obtained at surgery or autopsy and was prepared as follows. […]
To determine whether the decreased collagenase-3 binding in osteoarthritis tissues correlated with reduced receptor function, the amount of ^125I collagenase which was internalized by osteoarthritis and control chondrocytes was determined as described in Example 1. […]

synoviocytes = test: Internalization of 125I collagenase-3 by human synoviocytes; assay type: cell-based; conditions: compared to chondrocytes
Method: as §3, §5

[7] = 3 nM 125I-rat collagenase-3 + 100 nM RAP, mean ± SEM, triplicate

T2 sequence (G3V928 20-3944 limits assumed): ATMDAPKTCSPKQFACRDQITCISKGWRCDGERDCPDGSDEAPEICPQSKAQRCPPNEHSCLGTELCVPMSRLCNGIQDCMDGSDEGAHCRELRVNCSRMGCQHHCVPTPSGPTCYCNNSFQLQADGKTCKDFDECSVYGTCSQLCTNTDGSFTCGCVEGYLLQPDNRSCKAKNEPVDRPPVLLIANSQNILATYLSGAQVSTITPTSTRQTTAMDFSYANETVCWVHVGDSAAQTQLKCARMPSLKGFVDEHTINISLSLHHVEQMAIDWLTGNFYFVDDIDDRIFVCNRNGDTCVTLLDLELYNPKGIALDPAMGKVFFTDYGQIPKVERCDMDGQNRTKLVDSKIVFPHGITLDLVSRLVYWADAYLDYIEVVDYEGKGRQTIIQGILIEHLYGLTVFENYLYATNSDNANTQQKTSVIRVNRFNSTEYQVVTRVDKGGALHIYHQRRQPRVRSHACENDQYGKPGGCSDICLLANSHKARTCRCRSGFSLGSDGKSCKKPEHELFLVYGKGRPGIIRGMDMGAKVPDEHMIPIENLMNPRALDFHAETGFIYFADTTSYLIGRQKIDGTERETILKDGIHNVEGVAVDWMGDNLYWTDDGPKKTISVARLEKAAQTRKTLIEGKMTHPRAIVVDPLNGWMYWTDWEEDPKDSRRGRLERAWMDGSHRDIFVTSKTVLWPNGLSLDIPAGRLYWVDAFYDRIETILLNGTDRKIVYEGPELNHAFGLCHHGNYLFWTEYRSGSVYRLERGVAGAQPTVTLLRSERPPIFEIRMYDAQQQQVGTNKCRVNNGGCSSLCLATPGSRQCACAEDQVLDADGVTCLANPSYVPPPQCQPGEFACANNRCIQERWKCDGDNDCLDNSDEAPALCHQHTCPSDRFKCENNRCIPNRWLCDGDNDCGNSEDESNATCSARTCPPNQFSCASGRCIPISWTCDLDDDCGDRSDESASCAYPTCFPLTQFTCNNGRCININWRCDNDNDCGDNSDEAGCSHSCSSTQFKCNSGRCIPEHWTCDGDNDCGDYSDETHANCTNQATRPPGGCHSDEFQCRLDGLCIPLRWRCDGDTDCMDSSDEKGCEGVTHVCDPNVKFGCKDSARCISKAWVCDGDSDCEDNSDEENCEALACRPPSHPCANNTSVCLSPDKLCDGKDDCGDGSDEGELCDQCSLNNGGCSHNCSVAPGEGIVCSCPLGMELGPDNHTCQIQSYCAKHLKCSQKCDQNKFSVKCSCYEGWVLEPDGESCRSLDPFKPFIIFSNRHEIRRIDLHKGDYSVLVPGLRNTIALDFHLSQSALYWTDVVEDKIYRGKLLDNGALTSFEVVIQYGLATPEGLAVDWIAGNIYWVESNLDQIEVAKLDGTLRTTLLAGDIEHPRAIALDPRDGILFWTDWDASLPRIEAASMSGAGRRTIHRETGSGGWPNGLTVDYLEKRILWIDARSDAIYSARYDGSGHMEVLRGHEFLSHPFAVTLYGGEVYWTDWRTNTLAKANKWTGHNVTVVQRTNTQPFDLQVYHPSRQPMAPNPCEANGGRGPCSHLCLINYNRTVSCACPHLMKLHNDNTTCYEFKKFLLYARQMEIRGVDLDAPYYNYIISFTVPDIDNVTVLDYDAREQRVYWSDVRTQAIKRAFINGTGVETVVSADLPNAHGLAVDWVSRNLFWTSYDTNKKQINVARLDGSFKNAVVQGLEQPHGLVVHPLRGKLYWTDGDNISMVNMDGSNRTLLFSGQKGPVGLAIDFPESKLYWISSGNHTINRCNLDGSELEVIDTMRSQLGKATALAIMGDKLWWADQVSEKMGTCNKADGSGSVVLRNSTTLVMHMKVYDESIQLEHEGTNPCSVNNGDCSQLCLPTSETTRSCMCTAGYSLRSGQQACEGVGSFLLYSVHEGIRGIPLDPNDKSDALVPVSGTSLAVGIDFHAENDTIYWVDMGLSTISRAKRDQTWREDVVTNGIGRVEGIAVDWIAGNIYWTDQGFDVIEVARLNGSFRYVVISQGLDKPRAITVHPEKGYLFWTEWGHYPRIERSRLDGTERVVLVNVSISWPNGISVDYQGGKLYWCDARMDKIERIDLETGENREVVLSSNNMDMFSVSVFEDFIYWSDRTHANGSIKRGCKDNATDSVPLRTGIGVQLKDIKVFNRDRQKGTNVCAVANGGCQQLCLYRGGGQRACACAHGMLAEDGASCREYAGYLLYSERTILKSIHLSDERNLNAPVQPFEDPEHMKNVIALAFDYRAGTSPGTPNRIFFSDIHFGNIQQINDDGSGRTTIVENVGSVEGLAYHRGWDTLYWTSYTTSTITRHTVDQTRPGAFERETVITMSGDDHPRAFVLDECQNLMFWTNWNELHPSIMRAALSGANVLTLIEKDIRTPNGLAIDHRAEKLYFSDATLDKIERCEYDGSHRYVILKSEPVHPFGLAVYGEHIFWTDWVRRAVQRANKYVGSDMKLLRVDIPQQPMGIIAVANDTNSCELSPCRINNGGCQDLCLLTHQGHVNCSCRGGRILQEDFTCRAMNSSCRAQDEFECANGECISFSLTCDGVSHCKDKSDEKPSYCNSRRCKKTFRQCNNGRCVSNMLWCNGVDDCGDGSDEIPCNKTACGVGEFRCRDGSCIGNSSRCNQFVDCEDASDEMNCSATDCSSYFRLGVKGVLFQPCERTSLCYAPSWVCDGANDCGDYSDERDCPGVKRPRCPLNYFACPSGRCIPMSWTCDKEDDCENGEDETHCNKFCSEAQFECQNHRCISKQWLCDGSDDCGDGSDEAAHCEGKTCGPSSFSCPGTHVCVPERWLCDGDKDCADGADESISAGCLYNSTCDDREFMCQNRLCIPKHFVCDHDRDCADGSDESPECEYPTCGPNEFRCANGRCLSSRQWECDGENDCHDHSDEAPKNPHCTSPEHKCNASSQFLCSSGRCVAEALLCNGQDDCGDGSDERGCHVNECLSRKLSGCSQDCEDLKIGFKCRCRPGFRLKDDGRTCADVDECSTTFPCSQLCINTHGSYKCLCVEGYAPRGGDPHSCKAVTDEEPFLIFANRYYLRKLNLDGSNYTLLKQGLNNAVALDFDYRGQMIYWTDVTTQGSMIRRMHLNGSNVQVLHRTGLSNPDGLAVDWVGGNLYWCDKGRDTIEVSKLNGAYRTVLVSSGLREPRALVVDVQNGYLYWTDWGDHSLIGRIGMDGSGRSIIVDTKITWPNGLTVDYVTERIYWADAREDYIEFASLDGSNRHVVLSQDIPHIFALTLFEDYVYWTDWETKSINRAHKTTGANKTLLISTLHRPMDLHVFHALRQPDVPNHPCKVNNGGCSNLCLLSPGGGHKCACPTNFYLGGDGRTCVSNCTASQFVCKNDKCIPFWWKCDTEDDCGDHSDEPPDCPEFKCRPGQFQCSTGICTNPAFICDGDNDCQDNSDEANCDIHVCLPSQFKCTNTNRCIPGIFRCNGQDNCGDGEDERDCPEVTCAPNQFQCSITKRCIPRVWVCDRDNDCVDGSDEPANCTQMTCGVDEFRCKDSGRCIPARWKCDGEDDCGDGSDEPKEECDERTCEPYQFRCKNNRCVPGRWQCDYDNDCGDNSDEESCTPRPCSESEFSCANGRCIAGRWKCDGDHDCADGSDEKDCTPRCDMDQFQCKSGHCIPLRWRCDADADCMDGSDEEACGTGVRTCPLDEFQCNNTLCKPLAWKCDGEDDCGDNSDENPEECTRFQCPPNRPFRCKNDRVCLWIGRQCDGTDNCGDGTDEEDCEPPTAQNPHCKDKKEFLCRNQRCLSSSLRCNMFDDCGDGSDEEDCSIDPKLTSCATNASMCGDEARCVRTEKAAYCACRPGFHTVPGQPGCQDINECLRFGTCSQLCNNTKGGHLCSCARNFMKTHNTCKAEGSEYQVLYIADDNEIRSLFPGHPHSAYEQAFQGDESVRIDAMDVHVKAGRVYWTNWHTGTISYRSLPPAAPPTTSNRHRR
T2 sequence (G3V928 3945-4545 partner limits assumed): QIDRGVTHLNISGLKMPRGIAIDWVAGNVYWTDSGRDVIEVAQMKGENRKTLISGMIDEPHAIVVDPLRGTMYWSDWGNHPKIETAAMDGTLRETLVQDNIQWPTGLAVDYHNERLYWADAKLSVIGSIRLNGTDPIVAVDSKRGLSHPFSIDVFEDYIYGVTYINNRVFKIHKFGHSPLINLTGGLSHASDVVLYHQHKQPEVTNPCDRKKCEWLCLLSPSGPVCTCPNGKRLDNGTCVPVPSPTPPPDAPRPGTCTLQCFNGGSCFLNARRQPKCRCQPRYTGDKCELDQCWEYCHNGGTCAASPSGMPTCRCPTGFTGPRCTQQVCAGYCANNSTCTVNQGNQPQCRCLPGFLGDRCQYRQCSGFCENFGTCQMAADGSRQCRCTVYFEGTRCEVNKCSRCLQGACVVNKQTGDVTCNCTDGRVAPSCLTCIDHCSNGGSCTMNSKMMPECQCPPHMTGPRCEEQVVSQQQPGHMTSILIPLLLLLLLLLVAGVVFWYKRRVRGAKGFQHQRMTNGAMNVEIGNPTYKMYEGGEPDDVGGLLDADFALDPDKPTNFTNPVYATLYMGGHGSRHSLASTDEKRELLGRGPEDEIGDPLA

Bmax, high affinity site (collagenase-3 receptor; Scatchard analysis)	Bmax, high affinity site (collagenase-3 receptor; computer analysis with the GraphPad InPlot program)	Bmax, lower affinity site ([1]; Scatchard analysis)	Bmax, lower affinity site ([1]; computer analysis)	effect on excretion of collagenase-3 (in words) (human chondrocytes [4])	% of maximum internalization, Normal rat osteoblasts (normal rat osteoblasts; [7])	reduction of intracellular accumulation of 125I-collagenase (normal rat osteoblasts; receptor-associated protein in binding medium, normal mineralizing rat osteoblasts)	effect on excretion of collagenase-3 (in words) (human synoviocytes)	inhibition of collagenase-3 internalization (human chondrocytes [6]; control chondrocytes)	reduction of collagenase-3 internalization (human chondrocytes [6]; osteoarthritis chondrocytes)	inhibition of collagenase-3 internalization (in words) (synoviocytes)	Substance	binding to UMR cells (in words) [2]	binding to UMR cells (in words) ([2]; listed as mMMP-13)	% of maximum internalization, UMR 106-01 rat osteoblasts (UMR 106-01 cells [3]; [7])	inhibition of internalization of 125I-rat collagenase-3 (UMR 106-01 cells [3]; FIG. 10, increasing concentrations of RAP)	effect of prebound excess unlabeled protein on rat collagenase-3 internalization (UMR 106-01 cells [3]; prebound to cells)	reduction of intracellular accumulation of 125I-collagenase (UMR 106-01 cells [3]; receptor-associated protein in binding medium)	competition with / inhibition of 125I-rat collagenase-3 binding (in words) (UMR 106-01 cells [5])
73.9 pmol/10^5 cells	75 pmol/10^5 cells	660 pmol/10^5 cells	834 pmol/10^5 cells								MMP-13 (1-472): recombinant full-length mouse collagenase-3, residues 1-472	binds equally as well as the rat enzyme	specifically and saturably					
				inhibited	56.99 ± 4.49%	43%	inhibited	88.2%	74.3%	similar	RAP: human receptor-associated protein expressed in bacteria from the pGEX expression vector; inhibits ligand internalization by LRP			20.84 ± 1.98%	approximately 70%	inhibited	79%	does not inhibit
